Results taken from patent publication US20250325675A1, “APTAMER, CONJUGATE, COMPOSITION, METHOD FOR PREPARING SAME, AND USE THEREOF” (priority 2022, published 2025).
{Cy5} = cyanine 5 fluorescent dye

How the values were obtained:
[1] = tested on: U118MG glioma tumor spheres; assay: High content imaging: entry into U118MG tumor spheres; type: cell-based, human; conditions: 100 nM, imaging without washing
Experimental: In this experiment, the entry of conjugate AP1 provided by the present disclosure and comparative conjugate comparative AP10 into U118MG glioma tumor spheres and A549 human non-small cell lung cancer tumor spheres was observed by a PerkinElmer High Content Imaging system (Operatta).
80 μL fresh, sterilized and unsolidified 2% agarose was added into the culture wells of a 96-well plate. […] Half of the supernatant was aspirated every 48 h and fresh DMEM medium was added along the wall of the culture wells. After 7 days of culture, the cells were observed under the microscope to confirm that complete cell spheres were obtained, indicating successful tumor sphere cultivation.
Each culture well was added with AP1 or comparative AP10 according to the method of experimental Example 2, and imaged in a high content imaging system, with the only difference of directly performing imaging after culture without washing and performing imaging according to the measured fluorescence intensity of Cy5.

[2] = tested on: A549 human non-small cell lung cancer cells; assay: High content imaging: entry of conjugates into A549 cells; type: cell-based; conditions: 100 nM, 30 min 37°C
Experimental: (§1) In this experiment, the entry of conjugate AP1 provided by the present disclosure and comparative conjugate comparative AP10 into different cells was observed by a PerkinElmer High Content Imaging system (Operatta).
(§2) U118MG glioma cells, SVGp12 normal astrocytes, T98G human brain glioma cells, U251 human glioma cells, A549 human non-small cell lung cancer cells, MCF-7 human breast cancer cells, and 293T human kidney epithelial cells were all purchased from the Shanghai Cell Bank of Chinese Academy of Sciences. […] The supernatant was aspirated and DPBS buffer (purchased from Thermo Fisher) was added to wash the plate 2 times (100 μL each time).
(§3) Conjugate AP1 prepared above and yeast tRNA were respectively formulated into conjugate solution 2A with DMEM medium, and the conjugate solution 2A comprised yeast tRNA at a final concentration of 100 μg/mL and conjugate AP1 at a final concentration of 100 nM. […]
(§4) Normalization was performed according to the mean fluorescence intensity of control group 2Y, that is, subtracting the mean fluorescence intensity of control group 2Y from the fluorescence intensity of test group 2X before performing imaging.

U118-MG glioma cells = assay: Flow cytometry: entry of conjugates into U118-MG glioma cells in vitro; type: cell-based, human; conditions: for relative fluorescence difference R: R=(MFIAP1−MFICAP10)/MFICAP10; for mean fluorescence intensity (MFI): 1 h 37°C, yeast tRNA 100 μg/mL, flow cytometry
Experimental: U118MG cells were seeded into a 96-well plate at 5×10^5 cells/well. Conjugate AP1 prepared above and yeast tRNA were respectively formulated into conjugates solution 1A, 1B, 1C, 1D, 1E, 1F, 1G, 1H, and 1I with DMEM medium, and these conjugate solutions 1A-1I comprised yeast tRNA at a final concentration of 100 μg/mL and respectively comprised conjugate AP1 at final concentrations of 5 nM, 10 nM, 20 nM, 40 nM, 60 nM, 80 nM, 100 nM, 150 nM, 200 nM, and […].
Control conjugate comparative AP10 prepared above and yeast tRNA were respectively formulated into conjugates solution 1A′, 1B′, 1C′, 1D′, 1E′, 1F′, 1G′ 1H′, and 1I′ with DMEM medium, and these conjugate solutions 1A′-1I′ comprised yeast tRNA at a final concentration of 100 μg/mL and respectively comprised control conjugate comparative AP10 at final concentrations of 5 nM, 10 nM, 20 nM, 40 nM, 60 nM, 80 nM, 100 nM, 150 nM, 200 nM, and […].
The aforementioned culture wells containing U118MG cells were respectively added with the conjugate solutions 1A-1I above in an amount of 200 μL/well and designated as test group 1A-test group 1I. The aforementioned culture wells containing U118MG cells were respectively added with the conjugate solution 1A′-1I′ above in an amount of 200 μL/well and designated as control group 1A′-control group 1I′. Another culture well containing U118MG cells was added with 200 μL DMEM medium containing yeast tRNA at a final concentration of 100 μg/mL and designated as blank control group 1J. The 96-well plate containing the above test groups and the blank control group were incubated at 37° C. for 1 h in the dark; after incubation, the supernatant of the reaction mixture of each test group and the blank control group was aspirated, and DPBS buffer (purchased from Thermo Fisher) was added to wash the plate 3 times (100 μL each time). After the washing solution was aspirated, each culture well was added with 100 μL DMEM medium to obtain a cell suspension. The supernatant was removed by centrifugation and then 500 μL DPBS buffer was added to re-suspend the cells. Flow cytometry analysis was performed with flow cytometer (BD Biosciences): 10,000 cells in each test group or the blank control group were analyzed, the fluorescence intensity distribution was determined and the mean fluorescence intensity (MFI, a.u.) was calculated. Furthermore, the mean fluorescence intensity corresponding to each final concentration of conjugates is listed in Table 4 below for comparison, and the relative fluorescence difference R is calculated according to the following equation: R=(MFIAP1−MFICAP10)/MFICAP10.
Therein, MFIAP1 represents mean fluorescence intensity of conjugate AP1 in U118-MG glioma cells, and MFICAP10 represents mean fluorescence intensity of comparative AP10 in U118-MG glioma cells.

U251 human glioma cells = assay: High content imaging: entry of conjugates into U251 cells; type: cell-based; conditions: 100 nM, 30 min 37°C
Experimental: as §1, §2, §3, §4

With “CY5-CfUfGGAGUfUfCfAGACfGUfGUfUfGCfUfCfUfUfCfCfGAUfCfUfCf (CUGGAGUUCAGACGUGUUGCUCUUCCGAUCUC; 2'-fluoro at CU, RNA at AG, 5' {Cy5}, backbone not given here) [AP1]” the “Cy5 fluorescence signal in tumor spheres” value [1] was “strong Cy5 fluorescence signal”, the “Cy5 fluorescence signal in cells” value [2] was “strong Cy5 fluorescence signal” and the “relative fluorescence difference R” value (U118-MG glioma cells; 5 nM) was 9.37. The “relative fluorescence difference R” value (U118-MG glioma cells; 10 nM) was 6.47, the “relative fluorescence difference R” value (U118-MG glioma cells; 20 nM) was 5.18 and the “relative fluorescence difference R” value (U118-MG glioma cells; 40 nM) was 2.25. The “relative fluorescence difference R” value (U118-MG glioma cells; 60 nM) was 2.53, the “relative fluorescence difference R” value (U118-MG glioma cells; 80 nM) was 2.71 and the “relative fluorescence difference R” value (U118-MG glioma cells; 100 nM) was 1.88. For the same substance, the “relative fluorescence difference R” value (U118-MG glioma cells; 150 nM) was 2.17, the “relative fluorescence difference R” value (U118-MG glioma cells; 200 nM) was 3.23 and the “relative fluorescence difference R” value (U118-MG glioma cells; 500 nM) was 2.91. The “mean fluorescence intensity compared with comparative AP10” value (U118-MG glioma cells; at different concentrations (5-500 nM)) was “significantly higher mean fluorescence intensity”, the “mean fluorescence intensity (MFI)” value (U118-MG glioma cells; conjugate 5 nM) was 263.4 a.u and the “mean fluorescence intensity (MFI)” value (U118-MG glioma cells; conjugate 10 nM) was 503.4 a.u. The “mean fluorescence intensity (MFI)” value (U118-MG glioma cells; conjugate 20 nM) was 1089.4 a.u, the “mean fluorescence intensity (MFI)” value (U118-MG glioma cells; conjugate 40 nM) was 1440.4 a.u and the “mean fluorescence intensity (MFI)” value (U118-MG glioma cells; conjugate 60 nM) was 2355.4 a.u. The “mean fluorescence intensity (MFI)” value (U118-MG glioma cells; conjugate 80 nM) was 2921.4 a.u, the “mean fluorescence intensity (MFI)” value (U118-MG glioma cells; conjugate 100 nM) was 3360.4 a.u and the “mean fluorescence intensity (MFI)” value (U118-MG glioma cells; conjugate 150 nM) was 3969.4 a.u. For the same substance, the “mean fluorescence intensity (MFI)” value (U118-MG glioma cells; conjugate 200 nM) was 7895.4 a.u, the “mean fluorescence intensity (MFI)” value (U118-MG glioma cells; conjugate 500 nM) was 15770.4 a.u and the “Cy5 fluorescence signal in cells” value (U251 human glioma cells) was “strong Cy5 fluorescence signal”.
